The structures appear in SMILES notation.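 How tested: cells in 96-well plates exposed to compound for 48 hours at five concentrations. TGI denotes the concentration required for complete inhibition of growth.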 Where only a bound is given, the exact number is not on record here.

Test systems include T-47D breast; SW-620 colon; OVCAR-5 ovarian; SR leukemia; DU-145 prostate; HOP-92 NSCLC; OVCAR-3 ovarian; 786-0 renal; OVCAR-8 ovarian; SK-MEL-2 melanoma; MDA-N.
Test in all cases: inhibition of tumour cell growth, NCI panel, 48 h

Take `COc1cccc(NCC(=O)Nn2c(-c3ccccc3)nc3ccccc3c2=O)c1`: the TGI in the assay with T-47D breast, in the assay with SW-620 colon, in the assay with OVCAR-5 ovarian, in the assay on SR leukemia, in the assay on DU-145 prostate and in the assay with HOP-92 NSCLC was over 100 µM each time. Besides, the TGI in the assay with OVCAR-3 ovarian, with 786-0 renal and in the assay on OVCAR-8 ovarian was over 100 µM each time.

For `Cc1cccc(-c2cc(=O)c3ccc(C)nc3[nH]2)c1`, the TGI was over 100 µM in the assay on T-47D breast; over 100 µM in the assay on OVCAR-5 ovarian; 2.07 µM with SR leukemia; over 56.9 µM in the assay with DU-145 prostate; 57.7 µM in the assay on HOP-92 NSCLC; over 100 µM in the assay on SK-MEL-2 melanoma. The TGI was 0.503 µM with OVCAR-3 ovarian, over 100 µM with 786-0 renal and over 100 µM in the assay with OVCAR-8 ovarian.

Regarding `O=c1nc2n(cc1/C=C\Br)C1CC(O)C(CO2)O1` (stereo not drawn), the TGI in the assay with T-47D breast, in the assay with SW-620 colon, in the assay on OVCAR-5 ovarian, with DU-145 prostate, with OVCAR-3 ovarian and with MDA-N was over 100 µM each time. The TGI in the assay on 786-0 renal and in the assay with OVCAR-8 ovarian was over 100 µM in each case.

In the case of `N[C@@H]1c2c(Br)sc(Br)c2[C@H](O)[C@@H]1O`, the TGI with T-47D breast, in the assay on SW-620 colon, with OVCAR-5 ovarian, in the assay on DU-145 prostate, in the assay with HOP-92 NSCLC and in the assay on SK-MEL-2 melanoma was over 100 µM each time. In addition, the TGI with OVCAR-3 ovarian, in the assay with MDA-N, with 786-0 renal and with OVCAR-8 ovarian was over 100 µM throughout.

As to `COC1(OC)N=C(N)C2(C#N)C(C)CC(=O)N(N(C)C)C12C#N` (stereo not drawn), the TGI with T-47D breast, with SW-620 colon, in the assay on OVCAR-5 ovarian, in the assay on SR leukemia, in the assay on DU-145 prostate and with HOP-92 NSCLC was over 100 µM each time. Further, the TGI with SK-MEL-2 melanoma, in the assay with 786-0 renal and in the assay with OVCAR-8 ovarian was over 100 µM each time.

`CC(SC(=S)N1CCCCC1)C(=O)Nc1nnc(-c2ccc(Cl)cc2)o1` (stereo not drawn): the TGI with T-47D breast is over 100 µM; in the assay with SW-620 colon, over 100 µM; in the assay with OVCAR-5 ovarian, over 100 µM; in the assay on DU-145 prostate, over 100 µM; with HOP-92 NSCLC it was over 100 µM; in the assay with SK-MEL-2 melanoma, 77.1 µM. For the same compound, the TGI in the assay with OVCAR-3 ovarian is 64.2 µM; in the assay with 786-0 renal, 47.5 µM; with OVCAR-8 ovarian, over 100 µM.

Turning to `CCOC(=O)CCC(NC(=O)c1ccc(CNc2nc3cc(N)cc(N)c3nc2-c2ccccc2)cc1)C(=O)OCC` (stereo not drawn), the TGI is 49.1 µM in the assay with T-47D breast; over 100 µM in the assay with SW-620 colon; over 100 µM with OVCAR-5 ovarian; 23.7 µM in the assay on SR leukemia; over 100 µM in the assay on DU-145 prostate; over 100 µM in the assay on HOP-92 NSCLC. For the same compound, the TGI in the assay with SK-MEL-2 melanoma is over 87.9 µM; with OVCAR-3 ovarian, over 100 µM; in the assay with 786-0 renal it was over 100 µM; in the assay with OVCAR-8 ovarian it was over 100 µM.

For the compound `COc1ccc(/C(Cl)=C(\C=O)c2ccc(F)cc2)cc1`, the TGI with SW-620 colon was over 100 µM; in the assay with HOP-92 NSCLC it was 19.1 µM; in the assay with SK-MEL-2 melanoma, 28.6 µM; in the assay on OVCAR-3 ovarian, 58 µM; with OVCAR-8 ovarian, over 100 µM.

Regarding `Cn1c(N2CCCC2)c(C=O)c(=O)n(C)c1=O`, the TGI with T-47D breast, with SW-620 colon, in the assay on OVCAR-5 ovarian, in the assay on DU-145 prostate, with HOP-92 NSCLC and with SK-MEL-2 melanoma was over 100 µM throughout. In addition, the TGI in the assay with OVCAR-3 ovarian, with MDA-N, in the assay on 786-0 renal and in the assay on OVCAR-8 ovarian was over 100 µM each time.

Regarding `CC1=C(C2=C(C)C(=O)C(=O)c3cc(C)ccc32)c2ccc(C)cc2C(=O)C1=O`, the TGI was found to be 0.45 µM in the assay on OVCAR-5 ovarian; 2.84 µM with DU-145 prostate; 0.398 µM in the assay with HOP-92 NSCLC; 0.877 µM in the assay with SK-MEL-2 melanoma; 0.323 µM in the assay with OVCAR-3 ovarian; 0.347 µM in the assay on MDA-N. Further, the TGI came out at 1.45 µM with 786-0 renal and 0.54 µM in the assay with OVCAR-8 ovarian.

Regarding `Oc1ccc2c(c1)OCC(O)(c1ccccc1O)C2` (stereo not drawn), the TGI in the assay with T-47D breast, with SW-620 colon, in the assay on OVCAR-5 ovarian, with DU-145 prostate, in the assay on HOP-92 NSCLC and in the assay with SK-MEL-2 melanoma was over 100 µM throughout. Moreover, the TGI in the assay on OVCAR-3 ovarian, in the assay with MDA-N, in the assay with 786-0 renal and in the assay on OVCAR-8 ovarian was over 100 µM in each case.

Regarding `O=C(CSc1nnc(Cc2ccccc2)o1)Nc1ccc(Cl)cc1`, the TGI with SW-620 colon, in the assay with OVCAR-5 ovarian, in the assay with SK-MEL-2 melanoma, in the assay with OVCAR-3 ovarian, in the assay on 786-0 renal and in the assay with OVCAR-8 ovarian was over 100 µM each time.

As to `CCOC(=O)c1c(C)n(Cc2ccccc2)c2c1cc(O)c1[nH]c3c(c12)CCCC3`, the TGI turned out to be 13.3 µM in the assay with SW-620 colon; 20.1 µM with OVCAR-5 ovarian; 26.1 µM with DU-145 prostate; 2.11 µM in the assay on HOP-92 NSCLC; 5.25 µM with SK-MEL-2 melanoma; 6.2 µM with OVCAR-3 ovarian. Moreover, the results for the TGI in the assay on MDA-N, in the assay with 786-0 renal and in the assay on OVCAR-8 ovarian were 28.2 µM, 30.2 µM and 20.6 µM, respectively.

As for `O=[N+]([O-])c1ccc(/C=C/c2ccc(N=Nc3ccc(/C=C/c4ccc([N+](=O)[O-])cc4S(=O)(=O)O)c(S(=O)(=O)O)c3)cc2S(=O)(=O)O)c(S(=O)(=O)O)c1`, the TGI with SW-620 colon was over 100 µM; in the assay with OVCAR-5 ovarian, over 100 µM; in the assay with HOP-92 NSCLC it was over 94.3 µM; with SK-MEL-2 melanoma it was over 100 µM; in the assay on OVCAR-3 ovarian, over 100 µM; in the assay on OVCAR-8 ovarian it was over 100 µM.

Turning to `CC1=C(C(=O)OCCO[N+](=O)[O-])C(c2ccccc2C(F)(F)F)C(C(=O)OC(C)C)=C(C)N1` (stereo not drawn), the TGI in the assay with T-47D breast was over 100 µM; in the assay on SW-620 colon, over 100 µM; in the assay on OVCAR-5 ovarian, 37.3 µM; in the assay with SR leukemia, over 100 µM; in the assay on DU-145 prostate, over 100 µM; with HOP-92 NSCLC, 26.8 µM. Moreover, the TGI worked out at 29.7 µM with SK-MEL-2 melanoma, 29.2 µM in the assay on OVCAR-3 ovarian, 36.6 µM in the assay on 786-0 renal and 64.7 µM in the assay with OVCAR-8 ovarian.

(Values after PubChem BioAssay (NCI).)
